{"source": "patent US9809562B2", "about": "“NAT10 modulators for treating or preventing laminopathies, aging and cancer” (CAMBRIDGE ENTERPRISE LIMITED, priority 2014, dated 2017)", "key": {"[1]": {"tested_on": "HGPS mice (Lmna^G609G/G609G)", "test": "Survival in mouse model of Hutchinson Gilford progeria syndrome", "format": "in vivo", "conditions": "daily oral dose of 100 mg/kg/day from 3 weeks of age, vs vector only, n=10", "method": "Middle panel of FIG. 25: HGPS mice were treated with a daily oral dose of 100 mg/kg/day of Compound 2 from 3 weeks of age and until culled due to >20% body weight loss. […] Right panel of FIG. 25: Global survival of HGPS mice (Lmna^G609G/G609G) treated with vector only (Lmna^G609G/G609G V) or with Compound 2 (Lmna^G609G/G609G2) showing a significant increase of the median survival of mice upon Compound 2 treatment (+25%). Number of mice/group n=10."}, "HGPS fibroblasts": {"tested_on": "HGPS fibroblasts", "test": "Microarray gene expression, HGPS fibroblasts", "format": "cell-based, human", "method": "(§1) Normal fibroblasts or HGPS fibroblasts were kept in culture for 12 population doublings with chronic treatment of 1 μM Compound 2 (top panels of FIG. 29) or transfected with siRNA against NAT10 for 3 days (bottom panels of FIG. 29). RNA was extracted and global gene expression was analysed by microarray. Volcano plots show a very high specificity of Compound 2 towards gene expression regulation of HGPS cells, with about 1000 genes affected more than 2 fold, whereas only 24 genes were affected in normal fibroblasts."}, "Lmna^G609G/G609G mice": {"tested_on": "Lmna^G609G/G609G mice", "test": "Tubulin acetylation levels in mice", "format": "in vivo, mouse", "conditions": "treated Lmna^G609G/G609G mice", "method": "As Tubulin is a direct substrate of NAT10, Tubulin acetylation levels in cells derived from HGPS patients (left and bottom panel of FIG. 27) were assessed as well as in Lmna^G609G/G609G mice (right panel of FIG. 27)."}, "[2]": {"test": "Compound concentration in heart and muscles", "format": "in vivo", "conditions": "mice, end of the 14 days oral treatment", "excerpt": "Right panel of FIG. 24: measurement of Compound 2 concentration in heart and muscles of mice treated with the indicated dose, at the end of the 14 days treatment."}, "Normal fibroblasts": {"tested_on": "Normal fibroblasts", "test": "Microarray gene expression, normal fibroblasts", "format": "cell-based, human", "conditions": "1 μM, 12 population doublings", "method": "as §1"}, "[3]": {"tested_on": "LMNA knock out (KO) U2OS cell line", "test": "Cell growth of LMNA KO versus LMNA WT U2OS cells (IncuCyte ZOOM)", "format": "cell-based, human", "conditions": "U2OS, CripR/Cas9 LMNA KO", "excerpt": "LMNA knock out (KO) U2OS cell line was engineered using CripR/Cas9 technology. The sensitivity of LMNA KO cells to Compound 2 was compared to cells expressing wild type LMNA (LMNA WT). Cell growth was monitored automatically over time using an IncuCyte ZOOM®. The results are shown in FIG. 21 which has been split into two graphs for easier reading of the curves."}}, "note": "Counter-ions that a name gives are not always drawn.", "data": [{"molecule": "Clc1ccc(-c2csc(NN=C3CCCC3)n2)cc1", "note": "[Compound 2, 4-(4-Chlorophenyl)-2-(2-cyclopentylidenehydrazinyl)thiazole Hydrochloride Salt]", "values": [{"measurement": "increase of the median survival", "setting": "[1]", "result": "+25%"}, {"measurement": "number of genes affected more than 2 fold", "setting": "HGPS fibroblasts; HGPS fibroblasts, 1 μM, 12 population doublings", "result": "about 1000 genes"}, {"measurement": "genes misregulated in HGPS that are rescued", "setting": "HGPS fibroblasts; HGPS vs normal fibroblasts, Venn diagrams", "result": "about half of the genes that are misregulated in HGPS compared to normal fibroblasts are rescued"}, {"measurement": "tubulin acetylation levels", "setting": "Lmna^G609G/G609G mice", "result": "decrease of tubulin acetylation levels"}, {"measurement": "compound concentration in heart and muscles", "setting": "[2]", "result": "very high concentration of the compound in both heart and muscles"}, {"measurement": "number of genes affected", "setting": "Normal fibroblasts", "result": 24, "unit": "genes"}, {"measurement": "cell growth inhibition of LMNA KO versus LMNA WT cells", "setting": "[3]", "result": "specificity of Compound 2 towards inhibiting cell growth of LMNA KO cells"}]}]}
